Series [1] in a line: Thermodynamic solubility profiling. In kind it is physicochemical. To be noted: 24 h at rt. Here is the method:
A 50 mM DMSO stock solution of test compound was prepared, and from this, a working solution of 1 mM was prepared by dilution with DMSO. The UV absorbance of working solution was scanned from 220 nm to 1000 nm to identify the wavelength maxima of test compound. The 1 mM working solution was then serially diluted in DMSO to different concentrations to determine linearity/calibration curve. […] The resulting solution was then kept on a RotoSpin shaker at 50 rpm for 24 h at rt before the solution was filtered using 0.45 micron PVDF injector filters in order to remove the insoluble fraction of the compound. Subsequently, 150 uL of the filtrate is taken for quantification using a UV spectrophotometer, acquiring the optical density of standard solutions and test compound at the same wavelength maxima. From the optical density of test compound the thermodynamic solubility is calculated using the linearity/calibration curve and expressed as micromolar (μM). Solubility profiles of certain compounds of the invention are detailed in Table 6.

A further series deals with T1, human CGRP receptor (Homo sapiens, UniProt O60894+Q16602).
T1 construct: The human neuroblastoma cell line SK-N-MC endogenously expressing the human CGRP receptor; endogenous in cells; host or cells: SK-N-MC human neuroblastoma cells
Description: cAMP functional assay (HTRF) in SK-N-MC cells. The following applies: read-out: pKb average (converted). In kind it is cell-based. As to the method: cAMP production following receptor activation was determined using the Homogeneous Time-Resolved Fluorescence (HTRF) cAMP dynamic-2 assay (Cisbio, France). The human neuroblastoma cell line SK-N-MC endogenously expressing the human CGRP receptor was seeded at a density of 12,500 cells/well in solid walled 96 well half area plates (Costar, Catalog Number 3688, Corning Life Sciences, Germany). After 16 h incubation at 37° C. media was removed and cells were incubated at 37° C. for 30 min in serum free media containing 500 μM IBMX (Tocris, Abingdon, UK, Catalog Number 2845) and increasing concentrations of test antagonist. Following this cells were challenged with an EC80 concentration of human CGRP (0.3 nM) for a further 30 min at 37° C. and then cAMP production was determined as manufacturer's instructions before plates were read on a PheraStar fluorescence plate reader (BMG LabTech, Germany). IC50 values were derived from the inhibition curve. The pIC50 values (where pIC50=−log10 IC50) were converted to a functional pKb value using a modified Cheng-Prussoff equation where Kd=agonist EC50 and L hot=agonist challenge concentration. The pKb values of certain compounds of the invention are detailed in Table 3.
On the technique in general: Time-resolved FRET reads energy transfer from a long-lived donor to a nearby acceptor.

Series [2] can be described thus: Pharmacokinetic profiling in cynomolgus monkey. In kind it is in vivo, male Cynomolgus Monkeys. The following applies: male, plasma, acidified saline.
Description: (§1) Following dosing by the routes above blood samples were taken at several time points (typically pre-dose, 0.083, 0.25, 0.5 1, 2, 4, 8 and 24 h) via serial tail vein bleeds (rat) or cephalic or saphenous vein (monkey) from the animal and centrifuged to separate plasma for analysis by LC/MS/MS assay. WinNonlin v6.2 statistics software (Pharsight Corporation, California, USA) was used to generate pharmacokinetic parameters using the non-compartmental model.
Series [3] can be described thus: Pharmacokinetic profiling in rat. It is filed as in vivo, male Sprague Dawley rats. To be noted: male, Sprague Dawley, plasma, inhaled or intranasal.
Description: Prior to IN dosing rats were anaesthetised with an intramuscular dose of 25-30 mg/kg ketamine cocktail (ketamine, xylazine hydrochloride and acepromazine maleate in saline) and the dose is introduced over 20-30 s via a polyethylene PE-10 tube inserted approximately 5 mm into the nasal cavity of the rat.
as §1
For series [4], the target named is T2, Human CGRP receptors (consisting of CRLR and RAMP1) (Homo sapiens, UniProt O60894+Q16602).
T2 construct: made in house; host or cells: Sf21 insect cells (baculovirus, pFastBac dual vector); membrane homogenates
Kind of series: Radioligand binding assay (3H-telcagepant displacement). To be noted: 0.5 nM 3H-telcagepant, Sf21 cell membranes, Ki by Cheng-Prussoff; read-out: pKi average (converted). Here is the method: Human Calcitonin Receptor Like Receptor (CRLR) and human RAMP1 were cloned into Invitrogen's (ThermoFisher Scientific, UK) pFastBac dual expression vector. Transposition of CRLR/RAMP1 DNA was performed using Invitrogen's Bac-to-Bac Baculovirus Expression Systems. P0 baculovirus was generated by transfecting SF9 cells with bacmid DNA using Cellfectin® II transfection reagent (ThermoFisher Scientific, UK, catalog number 10362-100). Following P0 generation P1 virus was then generated ready for large scale infection and membrane preparation. Sf21 cells were grown in expression medium ESF921 (Expression Systems, USA, catalog number 96-001-01) supplemented with 10% heat-inactivated FBS and 1% Pen/Strep and were infected at a cell density of 2.5×10^6 cells/mL and an MOI of 2. Expression was carried out over 48 h in a shaking incubator set at 27° C. The cell culture was centrifuged at 2,500 rcf for 10 min at 4° C. The pellets were resuspended in cold PBS supplemented with Roche's Complete EDTA-free protease inhibitor cocktail tablets (Roche Applied Sciences, catalog number 05056489001), 1 mM PMSF and 1 mM EDTA. The resuspended cell paste was then centrifuged at 3,273 rcf for 12 min at 4° C. The supernatant was discarded and the pellet frozen at −80° C. The cell pellet from a 4 L culture was resuspended in buffer containing 50 mM Hepes pH 7.5, 150 mM NaCl, 8 Roche EDTA-free protease inhibitor cocktail tablets and 1 mM PMSF. The suspension was left stirring at rt for 1 h and then homogenised for 90 s at 9,500 rpm using a VDI 25 (VWR, USA) homogeniser. The cells were then lysed using a Microfluidizer processor M-110L Pneumatic (Microfluidics, USA). After lysis, the mixture was homogenised for 90 s at 9,500 rpm and then centrifuged at 335 rcf for 10 min. The supernatant was then further ultra-centrifuged at 42,000 rpm for 90 min. […]
Human CGRP receptors (consisting of CRLR and RAMP1) expressed in insect Sf21 cell membrane homogenates were re-suspended in the binding buffer (10 mM HEPES, pH 7.4, 5 mM MgCl2, 0.2% BSA) to a final assay concentration of […]. Saturation isotherms were determined by the addition of various concentrations of ^3H-telcagepant (Ho et al, The Lancet, 2008, 372, 2115) (in a total reaction volume of 250 μL) for 60 min at rt. […] Non-specific binding (NSB) was measured in the presence of 10 nM MK-3207 hydrochloride (CAS No. 957116-20-0). Radioactivity on the filter was counted (1 min) on a microbeta counter after addition of 50 μL of scintillation fluid. […] IC50 values were derived from the inhibition curve and the affinity constant (Ki) values were calculated using the Cheng-Prussoff equation (Cheng et al, Biochem. Pharmacol. 1973, 22, 3099-3108). […]

Setting [5] is: aqueous buffer, thermodynamic from solid, pH 6 (Sodium Phosphate Buffer).
[6] abbreviates: aqueous buffer, thermodynamic from solid, pH 7.4 (PBS buffer).

Values after ≈ are worked out from the molar mass of the structure shown.

Here are results for eight compounds from US10259812B2, “CGRP receptor antagonists” (Heptares Therapeutics Limited, priority 2015, dated 2019).

T2 sequence (Q16602 23-461): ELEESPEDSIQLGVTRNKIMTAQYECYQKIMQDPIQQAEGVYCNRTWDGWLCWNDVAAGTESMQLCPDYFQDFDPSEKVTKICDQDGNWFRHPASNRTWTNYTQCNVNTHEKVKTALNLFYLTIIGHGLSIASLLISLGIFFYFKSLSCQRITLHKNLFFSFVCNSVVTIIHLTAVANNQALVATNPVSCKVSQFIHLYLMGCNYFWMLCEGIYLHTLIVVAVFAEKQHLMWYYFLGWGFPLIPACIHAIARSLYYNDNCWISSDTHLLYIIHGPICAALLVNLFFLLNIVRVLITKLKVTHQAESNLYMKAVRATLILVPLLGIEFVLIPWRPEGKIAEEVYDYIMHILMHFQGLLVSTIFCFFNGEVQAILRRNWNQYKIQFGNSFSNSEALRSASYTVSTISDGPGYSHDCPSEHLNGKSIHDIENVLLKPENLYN
T2 sequence (O60894 27-148): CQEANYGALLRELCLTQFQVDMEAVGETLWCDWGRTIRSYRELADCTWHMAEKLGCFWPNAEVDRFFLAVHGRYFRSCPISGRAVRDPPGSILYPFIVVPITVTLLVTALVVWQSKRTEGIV
T1 sequence (Q16602 23-461): as the sequence (Q16602 23-461) above
T1 sequence (O60894 27-148): as the sequence (O60894 27-148) above

In general, solubility (thermodynamic) refers to solubility found after equilibrating the solid with the medium. `Cc1cc(C[C@@H](NC(=O)N2CCC(n3c(=O)[nH]c4ncccc43)CC2)C(=O)N2CCC3(CCN(C4CCNCC4)CC3)C2)cc2cn[nH]c12` [Example 1, N-{(2R)-3-(7-methyl-1H-indazol-5-yl)-1-oxo-1-[8-(piperidin-4-yl)-2,8-diazaspiro[4.5]dec-2-yl]propan-2-yl}-4-(2-oxo-2,3-dihydro-1H-imidazo[4,5-b]pyridin-1-yl)piperidine-1-carboxamide]: the solubility (thermodynamic) at 24 h in series [1] (setting [5]) amounted to 1030 µM (≈ 688 µg/mL). Also, the Kb at human CGRP receptor is 0.251 nM.

What is called clearance is the rate of elimination divided by the concentration. For orientation: bioavailability means dose-corrected exposure relative to a reference, in per cent. `CN[C@H](C)C(=O)N1CCC2(CC1)CCN(C(=O)[C@@H](Cc1cc(C)c3[nH]ncc3c1)NC(=O)N1CCC(c3cc4ccccc4[nH]c3=O)CC1)C2` [Example 2, N-[(2R)-1-[8-(N-methyl-D-alanyl)-2,8-diazaspiro[4.5]dec-2-yl]-3-(7-methyl-1H-indazol-5-yl)-1-oxopropan-2-yl]-4-(2-oxo-1,2-dihydroquinolin-3-yl)piperidine-1-carboxamide] had a clearance in series [2] (Cynomolgus monkey iv, 1 mg/kg) of 8 mL/min/kg. Further, the bioavailability worked out at 100% in series [2] (Cynomolgus monkey sc, 0.5 mg/kg) and 20% in series [3]. The solubility (thermodynamic) at 24 h in series [1] (setting [5]) was 1290 µM (≈ 876 µg/mL); in series [1] (setting [6]), 800 µM (≈ 545 µg/mL). Further, the Kb on human CGRP receptor was 1.26 nM.

As to `CN[C@H](C)C(=O)N1CCC2(CC1)CCN(C(=O)[C@@H](Cc1cc(C)c3[nH]ncc3c1)NC(=O)N1CCC(n3c(=O)[nH]c4ncccc43)CC1)C2` [Example 3, N-[(2R)-1-[8-(N-methyl-D-alanyl)-2,8-diazaspiro[4.5]dec-2-yl]-3-(7-methyl-1H-indazol-5-yl)-1-oxopropan-2-yl]-4-(2-oxo-2,3-dihydro-1H-imidazo[4,5-b]pyridin-1-yl)piperidine-1-carboxamide], the Ki in series [4] was 0.0794 nM. Moreover, the thermodynamic solubility at 24 h in series [1] (setting [5]) was 1430 µM (≈ 961 µg/mL); in series [1] (setting [6]), 1550 µM (≈ 1040 µg/mL). The Kb at human CGRP receptor was 0.631 nM.

As for `Cc1cc(C[C@@H](NC(=O)N2CCC(N3Cc4ccccc4NC3=O)CC2)C(=O)N2CCC3(CCN(C4CCNCC4)CC3)C2)cc2cn[nH]c12` [Example 4, N-{(2R)-3-(7-methyl-1H-indazol-5-yl)-1-oxo-1-[8-(piperidin-4-yl)-2,8-diazaspiro[4.5]dec-2-yl]propan-2-yl}-4-(2-oxo-1,4-dihydroquinazolin-3(2H)-yl)piperidine-1-carboxamide], in series [4], the Ki was 0.0794 nM. In addition, the thermodynamic solubility at 24 h in series [1] (setting [5]) amounted to 1350 µM (≈ 918 µg/mL); in series [1] (setting [6]), 1150 µM (≈ 783 µg/mL). On human CGRP receptor, the Kb was 0.794 nM.

Regarding `CN[C@H](C)C(=O)N1CCC2(CC1)CCN(C(=O)[C@@H](Cc1cc(C)c3[nH]ncc3c1)NC(=O)N1CCC3(CC1)OC(=O)Nc1ncccc13)C2` [Example 5, N-[(2R)-1-[8-(N-methyl-D-alanyl)-2,8-diazaspiro[4.5]dec-2-yl]-3-(7-methyl-1H-indazol-5-yl)-1-oxopropan-2-yl]-2′-oxo-1′,2′-dihydro-1H-spiro[piperidine-4,4′-pyrido[2,3-d][1,3]oxazine]-1-carboxamide], the Ki in series [4] is 0.1 nM. For the same compound, the thermodynamic solubility at 24 h in series [1] (setting [5]) was determined as 1580 µM (≈ 1060 µg/mL); in series [1] (setting [6]) it was 1460 µM (≈ 979 µg/mL). Further, the Kb at human CGRP receptor is 0.501 nM.

As to `CN[C@H](C)C(=O)N1CCC2(CC1)CCN(C(=O)[C@@H](Cc1cc(C)c3[nH]ncc3c1)NC(=O)N1CCC(N3Cc4ccccc4NC3=O)CC1)C2` [Example 6, N-[(2R)-1-[8-(N-methyl-D-alanyl)-2,8-diazaspiro[4.5]dec-2-yl]-3-(7-methyl-1H-indazol-5-yl)-1-oxopropan-2-yl]-4-(2-oxo-1,4-dihydroquinazolin-3(2H)-yl)piperidine-1-carboxamide], the thermodynamic solubility at 24 h in series [1] (setting [5]) worked out at 1500 µM (≈ 1020 µg/mL); in series [1] (setting [6]), 1570 µM (≈ 1070 µg/mL). The Kb on human CGRP receptor was 0.631 nM.

Regarding `Cc1cc(C[C@@H](NC(=O)N2CCC(n3c(=O)[nH]c4ncccc43)CC2)C(=O)N2CCC3(CCN(c4ccncc4)CC3)C2)cc2cn[nH]c12` [Example 7, N-{(2R)-3-(7-methyl-1H-indazol-5-yl)-1-oxo-1-[8-(pyridin-4-yl)-2,8-diazaspiro[4.5]dec-2-yl]propan-2-yl}-4-(2-oxo-2,3-dihydro-1H-imidazo[4,5-b]pyridin-1-yl)piperidine-1-carboxamide], the Ki in series [4] was 0.0501 nM. For the same compound, the thermodynamic solubility at 24 h worked out at 3630 µM (≈ 2400 µg/mL) in series [1] (setting [5]) and 2160 µM (≈ 1430 µg/mL) in series [1] (setting [6]). Moreover, at human CGRP receptor, the Kb was 0.398 nM.

Consider `NCCCC[C@H](NC(=O)[C@@H](Cc1cc(Br)c(O)c(Br)c1)NC(=O)N1CCC(N2Cc3ccccc3NC2=O)CC1)C(=O)N1CCN(c2ccncc2)CC1` [olcegepant, reference compound], for which the thermodynamic solubility at 24 h in series [1] (pH 6 (Sodium Phosphate Buffer)) came to 150 µM (≈ 130 µg/mL); in series [1] (pH 7.4 (PBS buffer)) it was 431 µM (≈ 375 µg/mL).
